Data taken from patent US7964727B2, “Quinolonecarboxylic acid compounds having 5-HT4 receptor agonistic activity” (Pfizer Inc., priority 2003, dated 2011).
Structures can show the parent of a compound that is named as a salt.

Which melting point does the source give for `CC(C)n1c(=O)c(C(=O)NCC2CCN(CC3(O)CCOCC3)CC2)cc2c(Cl)cccc21` here?
The melting point was 227 °C.

Which melting point does the source give for `Cc1cccc2c1cc(C(=O)NCC1CCN(CC3(O)CCOCC3)CC1)c(=O)n2C(C)C` here?
Its melting point is 222 °C.

With `CC(C)n1c(=O)c(C(=O)NCC2CCN(CC3(O)CCOCC3)CC2)cc2c(F)cccc21` (as salt: hydrochloride) as the molecule, how does the melting point read?
Its melting point is 275.7 °C.

Which melting point does the source give for `Cc1cccc2c1cc(C(=O)NCC1CCN(CC3CCNCC3)CC1)c(=O)n2C(C)C` (as salt: hydrochloride) here?
Its melting point is 240.7 °C.
